For 19 molecules, IC50 results are on record in patent EP2394998A1, “3-(5-Amino-6-oxo-1,6-dihydropyridazin-3-yl)-biphenyl derivatives as PDE4 inhibitors” (Almirall, S.A., priority 2010, dated 2011).

In the test the target is recombinant PDE4 enzyme. As to the kind of experiment: PDE4 assay: [3H] cAMP Scintillation Proximity Assay (SPA) of phosphodiesterase activity. It counts as biochemical. The conditions noted are these: yeast extract of recombinant PDE4 enzyme; 30 nM [3H] cAMP; 1 h at room temperature; pH 7.5. Here is the method:
Measurement of Phosphodiesterase Activity was done using a [3H] cAMP Scintillation Proximity Assay (SPA) (GE Healthcare). Compounds to be tested were disolved in dimethylsulfoxide (DMSO) at a stock concentration of 1 mM and serial dilutions were prepared in 50% DMSO to determine IC50s.
The reactions were conducted in 96-well plates (Corning, Ref.3604) at room temperature, in 0.1 mL of reaction buffer containing (final concentrations): 50 mM Tris-HCl, pH 7.5, 8.3 mM MgCl2, 1.7 mM EGTA, 30 nM [3H] cAMP (approximately 150000 dpm/well) with or without the inhibitors. The reaction was initiated by adding yeast extract of recombinant PDE4 enzyme.
Plates were shaken for 1 h at room temperature and the incubation was terminated by adding 50 µL (0.5 mg /well) of SPA ytrium silicate beads (RPNQ 0150; GE Healthcare) in the presence of zinc sulfate. Plates were stored overnight in the dark and read on a TRILUX microtiter plate reader (Perkin Elmer).
(SPA uses beads or plates that emit light when radiolabelled molecules are held near them.)
In the case of `CCn1nc(-c2cccc(-c3cc(C(=O)NCCCN4CCC[C@H]4COC)cc(C(=O)NC4CC4)c3)c2)cc(Nc2cccc3ncccc23)c1=O` [Example 62, N-cyclopropyl-3'-[1-ethyl-6-oxo-5-(quinolin-5-ylamino)-1,6-dihydropyridazin-3-yl]-N'-{3-[(2S)-2-(methoxymethyl)pyrrolidin-1-yl]propyl}biphenyl-3,5-dicarboxamide], the IC50 (as a rule, the midpoint of a concentration-inhibition curve) was 0.023 nM.
Next, `CCn1nc(-c2cccc(-c3cccc(C(=O)NCCN(C)C)c3)c2)cc(Nc2cccc3ncccc23)c1=O` [Example 12, N-[2-(dimethylamino)ethyl]-3'-[1-ethyl-6-oxo-5-(quinolin-5-ylamino)-1,6-dihydropyridazin-3-yl]biphenyl-3-carboxamide]: 0.125 nM; `CCn1nc(-c2cccc(-c3cccc(C(=O)NCCN4CCOCC4)c3)c2)cc(Nc2cccc3ncccc23)c1=O` [Example 15, 3'-[1-ethyl-6-oxo-5-(quinolin-5-ylamino)-1,6-dihydropyridazin-3-yl]-N-(2-morpholin-4-ylethyl)biphenyl-3-carboxamide]: 0.019 nM.
Next, `CCn1nc(-c2cccc(-c3ccc(CC(=O)NCCN4CCCCC4)cc3)c2)cc(Nc2cccc3ncccc23)c1=O` [Example 54, 2-{3'-[1-ethyl-6-oxo-5-(quinolin-5-ylamino)-1,6-dihydropyridazin-3-yl]biphenyl-4-yl}-N-(2-piperidin-1-ylethyl)acetamide]: 0.09 nM.
Next, `CCn1nc(-c2cccc(-c3cc(C(=O)NCCN4CCC[C@H]4COC)cc(C(=O)NC4CC4)c3)c2)cc(Nc2cccc3ncccc23)c1=O` [Example 63, N-cyclopropyl-3'-[1-ethyl-6-oxo-5-(quinolin-5-ylamino)-1,6-dihydropyridazin-3-yl]-N'-{2-[(2S)-2-(methoxymethyl)pyrrolidin-1-yl]ethyl}biphenyl-3,5-dicarboxamide]: 0.037 nM.
In the case of `CCn1nc(-c2cccc(-c3ccc(C(=O)O)cc3)c2)cc(Nc2cncc3ccccc23)c1=O` [Example 5, 3'-[1-ethyl-5-(isoquinolin-4-ylamino)-6-oxo-1,6-dihydropyridazin-3-yl]biphenyl-4-carboxylic acid], the IC50 amounted to 0.445 nM.
In the case of `CCn1nc(-c2cccc(-c3cccc(C(=O)NCC(N)=O)c3)c2)cc(Nc2cccc3ncccc23)c1=O` [Example 48, N-(2-Amino-2-oxoethyl)-3'-(1-ethyl-6-oxo-5-(quinolin-5-ylamino)-1,6-dihydropyridazin-3-yl)biphenyl-3-carboxamide] it was 0.041 nM; in that of `CCn1nc(-c2cccc(-c3cccc(C(=O)NC4CCC4)c3)c2)cc(Nc2cncc3ccccc23)c1=O` [Example 19, N-cyclobutyl-3'-[1-ethyl-5-(isoquinolin-4-ylamino)-6-oxo-1,6-dihydropyridazin-3-yl]biphenyl-3-carboxamide], 0.223 nM; in that of `CCn1nc(-c2cccc(-c3cccc(C(N)=O)c3)c2)cc(Nc2cccc3c2ccc[n+]3[O-])c1=O` [Example 7, 3'-{1-ethyl-5-[(1-oxidoquinolin-5-yl)amino]-6-oxo-1,6-dihydropyridazin-3-yl}biphenyl-3-carboxamide], 0.016 nM.
As to `CCn1nc(-c2cccc(-c3cccc(C(=O)NC4CCC4)c3)c2)cc(Nc2cccc3ncccc23)c1=O` [Example 25, N-cyclobutyl-3'-[1-ethyl-6-oxo-5-(quinolin-5-ylamino)-1,6-dihydropyridazin-3-yl]biphenyl-3-carboxamide], the IC50 stood at 0.209 nM.
Next, `CCn1nc(-c2cccc(-c3cccc(C(=O)NC4CC4)c3)c2)cc(Nc2cccc3ncccc23)c1=O` [Example 13, N-cyclopropyl-3'-[1-ethyl-6-oxo-5-(quinolin-5-ylamino)-1,6-dihydropyridazin-3-yl]biphenyl-3-carboxamide]: 0.037 nM; `CCn1nc(-c2cccc(-c3cccc(C(=O)NCCN4CCCCC4)c3)c2)cc(Nc2cccc3ncccc23)c1=O` [Example 16, 3'-[1-ethyl-6-oxo-5-(quinolin-5-ylamino)-1,6-dihydropyridazin-3-yl]-N-(2-piperidin-1-ylethyl)biphenyl-3-carboxamide]: 0.045 nM; `CCn1nc(-c2cccc(-c3ccc(C(=O)NCCN4CCCCC4)cc3)c2)cc(Nc2cncc3ccccc23)c1=O` [Example 22, 3'-[1-ethyl-5-(isoquinolin-4-ylamino)-6-oxo-1,6-dihydropyridazin-3-yl]-N-(2-piperidin-1-ylethyl)biphenyl-4-carboxamide]: 0.128 nM.
Next, `CCn1nc(-c2cccc(-c3cccc(C(=O)NCCN4CCOCC4)c3)c2)cc(Nc2cncc3ccccc23)c1=O` [Example 17, 3'-[1-ethyl-5-(isoquinolin-4-ylamino)-6-oxo-1,6-dihydropyridazin-3-yl]-N-(2-morpholin-4-ylethyl)biphenyl-3-carboxamide]: 0.043 nM.
Consider `CCn1nc(-c2cccc(-c3cccc(C(=O)NC4CCN(C)CC4)c3)c2)cc(Nc2cncc3ccccc23)c1=O` [Example 36, 3'-[1-ethyl-5-(isoquinolin-4-ylamino)-6-oxo-1,6-dihydropyridazin-3-yl]-N-(1-methylpiperidin-4-yl)biphenyl-3-carboxamide], for which the IC50 worked out at 0.172 nM.
Take `CCn1nc(-c2cccc(-c3cccc(C(=O)NC4CCCC4)c3)c2)cc(Nc2cccc3ncccc23)c1=O` [Example 27, N-cyclopentyl-3'-[1-ethyl-6-oxo-5-(quinolin-5-ylamino)-1,6-dihydropyridazin-3-yl]biphenyl-3-carboxamide]: the half-inhibitory concentration (IC50) was 0.016 nM.
Turning to `CCn1nc(-c2cccc(-c3cccc(C(=O)NCCCCCCCN(C)CCO)c3)c2)cc(Nc2cccc3ncccc23)c1=O` [Example 29, 3'-[1-ethyl-6-oxo-5-(quinolin-5-ylamino)-1,6-dihydropyridazin-3-yl]-N-{7-[(2-hydroxyethyl)(methyl)amino]heptyl}biphenyl-3-carboxamide], the IC50 was determined as 0.025 nM.
In the case of `CCn1nc(-c2cccc(-c3cccc(CCC(=O)NC4CC4)c3)c2)cc(Nc2cccc3ncccc23)c1=O` [Example 38, N-cyclopropyl-3-{3'-[1-ethyl-6-oxo-5-(quinolin-5-ylamino)-1,6-dihydropyridazin-3-yl]biphenyl-3-yl}propanamide] it was 0.101 nM; in that of `CCn1nc(-c2cccc(-c3cccc(C(=O)NCC(=O)O)c3)c2)cc(Nc2cccc3ncccc23)c1=O` [Example 49, N-({3'-[1-ethyl-6-oxo-5-(quinolin-5-ylamino)-1,6-dihydropyridazin-3-yl]biphenyl-3-yl}carbonyl)glycine], 0.042 nM.
